Laboratory results published in US6117841A, “Substituted peptidylamine calcium channel blockers” (Warner-Lambert Company, priority 1999, dated 2000).
Where two headings read alike, the source gives them in different places. One block for each molecule: values may come before it.

Molecular target: T1, N-type Ca^2+ Channel (Homo sapiens, UniProt Q00975)
T1 construct: host or cells: IMR-32 cells differentiated with dibutyryl cAMP and bromodeoxyuridine
Assay: Measurement of N-type Ca2+ channel blocking potencies in IMR-32 cells using the fluorescent Ca2+ indicator Indo-1
Assay type: cell-based
Summary of the method: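 IMR-32 cells were differentiated 7–13 days (1 mM dibutyryl cAMP, 2.5 µM BrdU) and Indo-1-loaded. They were preincubated 10 min at 30 °C with compound and 5 µM nitrendipine in HEPES/Tris pH 7.4 HBSS with 0.5% BSA, then KCl/CaCl2-depolarized. The peak-minus-basal 400/490 nm emission ratio gave IC50 by four-parameter logistic fit.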

[1] = IMR-32 cells, K+ depolarization, 5 μM nitrendipine to block L-type channels, read-out: IMR 32 IC50
[2] = IMR-32 cells, 5 μM nitrendipine
[3] = IMR-32 cells, 5 μM nitrendipine, Examples 116-140, read-out: IMR 32% of Blockade @

T1 sequence (Q00975 whole entry): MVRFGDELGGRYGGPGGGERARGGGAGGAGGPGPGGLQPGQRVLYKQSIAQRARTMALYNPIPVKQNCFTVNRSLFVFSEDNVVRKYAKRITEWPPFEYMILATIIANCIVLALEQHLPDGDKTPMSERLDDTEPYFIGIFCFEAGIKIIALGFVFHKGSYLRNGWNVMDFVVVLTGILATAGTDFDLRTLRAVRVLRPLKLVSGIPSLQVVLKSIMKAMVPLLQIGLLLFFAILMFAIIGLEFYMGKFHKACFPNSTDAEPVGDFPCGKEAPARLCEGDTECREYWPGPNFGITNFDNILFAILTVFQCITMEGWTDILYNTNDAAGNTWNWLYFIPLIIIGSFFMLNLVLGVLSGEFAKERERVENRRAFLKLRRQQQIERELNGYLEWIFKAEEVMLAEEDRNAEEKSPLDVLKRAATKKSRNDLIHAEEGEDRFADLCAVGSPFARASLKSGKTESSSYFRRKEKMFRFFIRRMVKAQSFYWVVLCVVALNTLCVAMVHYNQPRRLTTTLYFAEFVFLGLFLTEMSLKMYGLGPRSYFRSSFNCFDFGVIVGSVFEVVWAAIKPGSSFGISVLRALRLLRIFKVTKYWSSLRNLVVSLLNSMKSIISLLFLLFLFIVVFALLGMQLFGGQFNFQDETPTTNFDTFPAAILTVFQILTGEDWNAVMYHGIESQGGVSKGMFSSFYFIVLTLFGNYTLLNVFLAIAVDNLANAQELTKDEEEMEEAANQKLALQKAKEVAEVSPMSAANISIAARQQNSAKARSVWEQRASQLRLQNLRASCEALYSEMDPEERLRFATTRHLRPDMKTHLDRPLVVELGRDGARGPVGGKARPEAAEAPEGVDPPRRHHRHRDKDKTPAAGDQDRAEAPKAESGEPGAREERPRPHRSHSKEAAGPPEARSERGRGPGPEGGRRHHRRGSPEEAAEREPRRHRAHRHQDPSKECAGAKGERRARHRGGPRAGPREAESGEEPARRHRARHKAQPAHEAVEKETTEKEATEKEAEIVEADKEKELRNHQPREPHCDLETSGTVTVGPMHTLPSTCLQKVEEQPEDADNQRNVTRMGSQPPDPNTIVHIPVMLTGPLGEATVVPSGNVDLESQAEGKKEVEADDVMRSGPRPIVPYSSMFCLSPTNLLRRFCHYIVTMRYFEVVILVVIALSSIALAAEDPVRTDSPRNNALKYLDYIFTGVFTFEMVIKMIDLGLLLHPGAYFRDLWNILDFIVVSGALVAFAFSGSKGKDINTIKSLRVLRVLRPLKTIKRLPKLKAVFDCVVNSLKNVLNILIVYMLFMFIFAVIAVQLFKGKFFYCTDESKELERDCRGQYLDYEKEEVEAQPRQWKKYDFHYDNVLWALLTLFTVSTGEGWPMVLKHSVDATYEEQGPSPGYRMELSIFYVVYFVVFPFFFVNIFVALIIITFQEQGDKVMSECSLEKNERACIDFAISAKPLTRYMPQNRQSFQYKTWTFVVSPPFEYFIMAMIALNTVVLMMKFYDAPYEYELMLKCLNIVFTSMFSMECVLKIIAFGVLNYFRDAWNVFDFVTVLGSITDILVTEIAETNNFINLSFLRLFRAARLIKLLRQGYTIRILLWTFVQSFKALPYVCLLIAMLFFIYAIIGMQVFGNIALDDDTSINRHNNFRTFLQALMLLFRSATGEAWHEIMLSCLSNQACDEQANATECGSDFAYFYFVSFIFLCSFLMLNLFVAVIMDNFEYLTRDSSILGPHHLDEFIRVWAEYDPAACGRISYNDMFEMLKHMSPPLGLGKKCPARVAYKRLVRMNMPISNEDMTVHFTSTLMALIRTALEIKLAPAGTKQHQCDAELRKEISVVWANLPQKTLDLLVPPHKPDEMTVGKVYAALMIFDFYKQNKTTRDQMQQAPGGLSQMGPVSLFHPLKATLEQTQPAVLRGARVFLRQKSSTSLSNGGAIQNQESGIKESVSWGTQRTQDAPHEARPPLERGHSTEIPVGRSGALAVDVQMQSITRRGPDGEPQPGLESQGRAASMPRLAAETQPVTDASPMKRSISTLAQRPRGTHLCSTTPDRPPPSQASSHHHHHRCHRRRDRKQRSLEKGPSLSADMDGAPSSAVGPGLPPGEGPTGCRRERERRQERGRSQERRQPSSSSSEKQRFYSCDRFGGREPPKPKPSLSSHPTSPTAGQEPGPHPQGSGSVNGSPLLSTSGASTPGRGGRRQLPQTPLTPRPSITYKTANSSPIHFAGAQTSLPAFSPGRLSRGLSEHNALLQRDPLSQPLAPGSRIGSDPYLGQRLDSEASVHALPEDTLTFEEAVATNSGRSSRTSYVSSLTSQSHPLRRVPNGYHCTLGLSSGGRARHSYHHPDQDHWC
T1 sequence (P54284 whole entry partner): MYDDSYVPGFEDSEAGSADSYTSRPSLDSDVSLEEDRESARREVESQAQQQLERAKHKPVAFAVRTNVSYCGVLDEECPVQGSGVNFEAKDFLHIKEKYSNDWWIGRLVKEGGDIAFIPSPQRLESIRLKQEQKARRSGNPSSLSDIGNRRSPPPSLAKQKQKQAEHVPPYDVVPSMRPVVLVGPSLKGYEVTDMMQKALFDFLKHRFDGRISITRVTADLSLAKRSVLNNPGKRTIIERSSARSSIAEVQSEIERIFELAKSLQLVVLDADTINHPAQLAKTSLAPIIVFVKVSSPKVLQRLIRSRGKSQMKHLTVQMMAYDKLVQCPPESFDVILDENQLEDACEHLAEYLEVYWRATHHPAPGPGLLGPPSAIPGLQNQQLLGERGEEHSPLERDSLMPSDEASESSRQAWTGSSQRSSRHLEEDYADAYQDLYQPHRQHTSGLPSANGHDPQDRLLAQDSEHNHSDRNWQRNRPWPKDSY
T1 sequence (P54289 25-946 partner limits assumed): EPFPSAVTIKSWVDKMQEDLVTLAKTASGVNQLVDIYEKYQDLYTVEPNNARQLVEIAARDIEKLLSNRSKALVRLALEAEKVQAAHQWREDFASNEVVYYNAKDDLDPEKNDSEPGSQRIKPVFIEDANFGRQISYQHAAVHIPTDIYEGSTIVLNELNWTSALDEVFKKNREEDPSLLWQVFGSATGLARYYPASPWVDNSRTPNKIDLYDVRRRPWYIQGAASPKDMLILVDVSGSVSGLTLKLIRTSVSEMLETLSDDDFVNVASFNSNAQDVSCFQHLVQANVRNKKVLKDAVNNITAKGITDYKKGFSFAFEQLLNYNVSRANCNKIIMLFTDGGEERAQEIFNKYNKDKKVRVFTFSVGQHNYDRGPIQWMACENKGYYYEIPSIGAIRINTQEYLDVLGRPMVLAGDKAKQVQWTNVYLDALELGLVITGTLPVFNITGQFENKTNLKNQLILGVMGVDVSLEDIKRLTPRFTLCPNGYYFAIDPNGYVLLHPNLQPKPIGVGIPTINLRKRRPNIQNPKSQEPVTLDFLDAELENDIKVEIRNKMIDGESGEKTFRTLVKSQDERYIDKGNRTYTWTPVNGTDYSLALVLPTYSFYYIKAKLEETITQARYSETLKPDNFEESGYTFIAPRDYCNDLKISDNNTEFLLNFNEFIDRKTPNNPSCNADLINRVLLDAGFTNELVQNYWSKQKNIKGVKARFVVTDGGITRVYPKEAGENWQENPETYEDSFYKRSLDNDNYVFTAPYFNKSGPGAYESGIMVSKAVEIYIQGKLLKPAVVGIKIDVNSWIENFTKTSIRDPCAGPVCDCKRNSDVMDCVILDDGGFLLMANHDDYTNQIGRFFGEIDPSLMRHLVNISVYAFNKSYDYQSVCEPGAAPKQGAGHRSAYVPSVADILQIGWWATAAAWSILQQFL
T1 sequence (P54289 947-1103 partner limits assumed): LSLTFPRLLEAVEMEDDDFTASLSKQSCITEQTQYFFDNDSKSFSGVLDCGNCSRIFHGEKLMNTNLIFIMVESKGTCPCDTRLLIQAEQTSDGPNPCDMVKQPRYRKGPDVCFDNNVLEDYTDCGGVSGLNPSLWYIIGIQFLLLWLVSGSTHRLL

IC50 [1]: 440 nM
Molecule: CC(C)C[C@@H](C(=O)N[C@@H](Cc1ccc(OCc2ccccc2)cc1)C(=O)NC1CCN(Cc2ccccc2)CC1)N(C)Cc1ccc(C(C)(C)C)cc1 (relative stereo) [Example 17, S-(R*,R*)]-2-[(4-tert-Butyl-benzyl)-methyl-amino]-4-methyl-pentanoic acid [2-(4-benzyloxy-phenyl)-1-(1-benzyl-piperidin-4-yl-carbamoyl)-ethyl]-amide]

IMR 32 % of Blockade @ 1 μM [2]: 24%
Molecule: CC(C)C[C@@H](C(=O)N[C@@H](Cc1ccc(OCc2ccccc2)cc1)C(=O)NC(C)(C)C)N1CCOCC1 (relative stereo) [Example 94, [S-(R*,R*)]-4-Methyl-2-morpholin-4-yl-pentanoic acid [2-(4-benzyloxy-phenyl)-1-tert-butylcarbamoyl-ethyl]-amide]

IC50 [3]: 1900 nM
Molecule: CC(C)CCN(C)[C@@H](CC(C)C)C(=O)N[C@@H](Cc1ccc(OCc2ccccc2)cc1)C(=O)NCCCN1CCCC1=O (relative stereo) [Example 118, [S-(R*,R*)]-4-Methyl-2-[methyl-(3-methyl-butyl)-amino]-pentanoic acid {2-(4-benzyloxy-phenyl)-1-[3-(2-oxo-pyrrolidin-1-yl)-propylcarbamoyl]-ethyl}-amide]

IMR 32 % of Blockade @ 1 μM [2]: 56%
IMR 32 % of Blockade @ 10 μM [2]: 80%
Molecule: CC(C)C[C@@H](C(=O)N[C@@H](Cc1ccc(OCc2ccccc2)cc1)C(=O)NCCN1CCCCC1)N(C)Cc1ccc(C(C)(C)C)cc1 (relative stereo) [Example 15, [S-(R*,R*)]-2-[(4-tert-Butyl-benzyl)-methyl-amino]-4-methyl-pentanoic acid [2-(4-benzyloxy-phenyl)-1-(2-piperidin-1-yl-ethylcarbamoyl)-ethyl]-amide]

IMR 32 % of Blockade @ 1 μM [2]: 21%
IMR 32 % of Blockade @ 10 μM [2]: 70%
Molecule: CC(C)C[C@@H](C(=O)N[C@@H](Cc1ccc(OCc2ccccc2)cc1)C(=O)NCCN1CCCCC1)N(C)C (relative stereo) [Example 3, [S-(R*,R*)]-2-Dimethylamino-4-methyl-pentanoic acid [2-(4-benzyloxy-phenyl)-1-(2-piperidin-1-yl-ethylcarbamoyl)-ethyl]-amide]

IC50 [1]: 2300 nM
Molecule: CN[C@@H](CC(C)C)C(=O)N[C@@H](Cc1ccc(OCc2ccccc2)cc1)C(=O)NC(C)(C)C (relative stereo) [Example 35, [S-(R*,R*)]-4-Methyl-2-methylamino-pentanoic acid [2-(4-benzyloxy-phenyl)-1-tert-butylcarbamoyl-ethyl]-amide]

IC50 [3]: 3600 nM
Molecule: CC(C)C[C@@H](C(=O)N[C@@H](Cc1ccc(OCc2ccccc2)cc1)C(=O)NC(C)CO)N(C)C (relative stereo) [Example 136, [S-(R*,R*)]-2-Dimethylamino-4-methyl-pentanoic acid [2-(4-benzyloxy-phenyl)-1-(2-aminopropan-1-olcarbamoyl)-ethyl]-amide]

IC50 [3]: 10000 nM
Molecule: [S-(R*,R*)]-4-Methyl-2-(tetrahydropyran-4-yl-amino)-pentanoic acid [2-(4-benzyloxy-phenyl)-1-(4-hydroxy-piperinylcarbamoyl]-amide [Example 131]

IMR 32 % of Blockade @ 0.3 μM: 35%
IMR 32 % of Blockade @ 3 μM: 74%
Molecule: [S-(R*,R*)]-3-Methyl-2-[methyl-(3-methyl-butyl)-amino]-pentanoic acid [2-(4-benzyloxy-phenyl)-1-tert-butylcarbamoyl-ethyl]-amide [Example 44]

IC50 [3]: 1400 nM
Molecule: CC(C)C[C@@H](C(=O)N[C@@H](Cc1ccc(OCc2ccccc2)cc1)C(=O)N1CCSCC1)N(C)C (relative stereo) [Example 135, [S-(R*,R*)]-2-Dimethylamino-4-methyl-pentanoic acid [2-(4-benzyloxy-phenyl)-1-(thiomorpholinecarbamoyl)-ethyl]-amide]

IC50 [1]: 100 nM
Molecule: CC(C)CC(C(=O)NC(Cc1ccc(NCc2ccccc2)cc1)C(=O)NC(C)(C)C)N(C)Cc1ccc(C(C)(C)C)cc1 (stereo not drawn) [Example 55, [S-(R*,R*)]-2-[(4-tert-Butyl-benzyl)-methyl-amino]-4-methyl-pentanoic acid [2-(4-benzylamino-phenyl)-1-tert-butylcarbamoyl-ethyl]-amide]

IC50 [1]: 1000 nM
Molecule: CC(C)C[C@@H](C(=O)N[C@@H](Cc1ccc(OCc2ccccc2)cc1)C(=O)NC(C)(C)C)N(C)Cc1ccc[nH]1 (relative stereo) [Example 89, [S-(R*,R*)]-4-Methyl-2-[methyl-(1H-pyrrol-2-ylmethyl)-amino]-pentanoic acid [2-(4-benzyloxy-phenyl)-1-tert-butylcarbamoyl-ethyl]-amide]

IC50 [1]: 1100 nM
Molecule: CC(C)CCN(C)[C@@H](CC(C)C)C(=O)N[C@@H](Cc1ccc(OCc2ccccc2)cc1)C(=O)N1CCC(O)CC1 (relative stereo) [Example 65, [S-(R*,R*)]-4-Methyl-2-[methyl-(3-methyl-butyl)-amino]-pentanoic acid [1-(4-benzyloxy-benzyl)-2-(4-hydroxy-piperidin-1-yl)-2-oxo-ethyl]-amide]

IC50 [1]: 1600 nM
Molecule: CC(C)CC(NC1CCOCC1)C(=O)NC(Cc1ccc(OCc2ccccc2)cc1)C(=O)NC(C)(C)C (stereo not drawn) [Example 78, [S-(R*,R*)]-4-Methyl-2-(tetrahydro-pyran-4-ylamino)-pentanoic acid [2-(4-benzyloxy-phenyl)-1-tert-butylcarbamoyl-ethyl]-amide]

IC50 [3]: 7200 nM
Molecule: CCC(CO)(CO)NC(=O)[C@H](Cc1ccc(OCc2ccccc2)cc1)NC(=O)[C@H](CC(C)C)N1CCOCC1 (relative stereo) [Example 124, [S-(R*,R*)]-4-Methyl-2-morpholin-4-yl-pentanoic acid [2-(4-benzyloxy-phenyl)-1-(1,1-bis-hydroxymethyl-propyl-carbamoyl)-ethyl]-amide]

Molecule: CC(C)C[C@@H](C(=O)N[C@@H](Cc1ccc(OCc2ccccc2)cc1)C(=O)N1CCCCC1)N(C)Cc1ccc(C(C)(C)C)cc1 (relative stereo) [Example 14, [S-(R*,R*)]-2-[(4-tert-Butyl-benzyl)-methyl-amino]-4-methyl-pentanoic acid [2-(4-benzyloxy-phenyl)-1-(piperidine-1-carbonyl)-ethyl]-amide]
IMR 32 % of Blockade @ 1 μM [2]: 80%
IMR 32 % of Blockade @ 10 μM [2]: 85%

IC50 [1]: 1100 nM
Molecule: CC(C)CCN(C)[C@@H](CC(C)C)C(=O)N[C@@H](Cc1ccc(OCc2ccccc2)cc1)C(=O)NC(C)(CO)CO (relative stereo) [Example 62, [S-(R*,R*)]-4-Methyl-2-[methyl-(3-methyl-butyl)-amino]-pentanoic acid [2-(4-benzyloxy-phenyl)-1-(2-hydroxy-1-hydroxymethyl-1-methyl-ethylcarbamoyl)-ethyl]-amide]

IC50 [1]: 2100 nM
Molecule: CC(C)C[C@H](NC1CCOCC1)C(=O)N[C@@H](Cc1ccc(OCc2ccccc2)cc1)C(=O)N1CCCCC1 (relative stereo) [Example 79, [S-(R*,R*)]-4-Methyl-2-(tetrahydro-pyran-4-ylamino)-pentanoic acid [1-(4-benzyloxy-benzyl)-2-oxo-2-piperidin-1-yl-ethyl]-amide]

IC50 [3]: 13000 nM
Molecule: CC(C)C[C@@H](C(=O)N[C@@H](Cc1ccc(OCc2ccccc2)cc1)C(=O)NC(C)(C)CO)N1CCOCC1 (relative stereo) [Example 123, [S-(R*,R*)]-4-Methyl-2-morpholin-4-yl-pentanoic acid [2-(4-benzyloxy-phenyl)-1-(2-hydroxy-1,1-dimethyl-ethylcarbamoyl)-ethyl]-amide]

IC50 [1]: 500 nM
Molecule: CC(C)C[C@@H](C(=O)N[C@@H](Cc1ccc(OCc2ccccc2)cc1)C(=O)N1CCN(Cc2ccccc2)CC1)N(C)CC1CCCCC1 (relative stereo) [Example 28, [S-(R*,R*)]-2-(Cyclohexylmethyl-methyl-amino)-4-methyl-pentanoic acid [1-(4-benzyloxy-benzyl)-2-(4-benzyl-piperazin-1-yl)-2-oxo-ethyl]-amide]

Molecule: CC(C)CCN(C)CC(=O)NC(Cc1ccc(OCc2ccccc2)cc1)C(=O)NC(C)(C)C (stereo not drawn) [Example 102, [S-(R*,R*)]-3-(4-Benzyloxy-phenyl)-N-tert-butyl-2-{2-[methyl-(3-methyl-butyl)-amino]-acetylamino}-propionamide]
IC50 [1]: 1600 nM

Molecule: CC(C)C[C@@H](C(=O)N[C@@H](Cc1ccc(OCc2ccccc2)cc1)C(=O)NC(C)(C)C)N(C)Cc1ccc(N(C)C)cc1 (relative stereo) [Example 40, [S-(R*,R*)]-2-[(4-Dimethylamino-benzyl)-methyl-amino]-4-methyl-pentanoic acid [2-(4-benzyloxy-phenyl)-1-tert-butylcarbamoyl-ethyl]-amide]
IC50 (read-out: IMR 32 IC50): 280 nM

IC50 [1]: 1600 nM
Molecule: CC(C)CCN(C)[C@@H](CC(C)C)C(=O)N[C@@H](Cc1ccc(OCc2ccccc2)cc1)C(=O)NCCCn1ccnc1 (relative stereo) [Example 59, [S-(R*,R*)]-4-Methyl-2-[methyl-(3-methyl-butyl)-amino]-pentanoic acid [2-(4-benzyloxy-phenyl)-1-(3-imidazol-1-yl-propylcarbamoyl)-ethyl]-amide]

IC50 [1]: 800 nM
Molecule: CCC(COC)NC(=O)[C@H](Cc1ccc(OCc2ccccc2)cc1)NC(=O)[C@H](CC(C)C)N(C)CCC(C)C (relative stereo) [Example 63, [S-(R*,R*)]-4-Methyl-2-[methyl-(3-methyl-butyl)-amino]-pentanoic acid [2-(4-benzyloxy-phenyl)-1-(1-methoxymethyl-propylcarbamoyl)-ethyl]-amide]

IC50 [3]: 3100 nM
Molecule: CC(C)C[C@@H](C(=O)N[C@@H](Cc1ccc(OCc2ccccc2)cc1)C(=O)NCCN1CCSCC1)N1CCOCC1 (relative stereo) [Example 122, [S-(R*,R*)]-4-Methyl-2-morpholin-4-yl-pentanoic acid [2-(4-benzyloxy-phenyl)-1-(2-thiomorpholin-4-yl-ethylcarbamoyl)-ethyl]-amide]
